Results taken from patent publication US11535598B2, “Histone deacetylases (HDACs) inhibitors” (ANNJI PHARMACEUTICAL CO., LTD., priority 2017, dated 2022).

Columns and labels:
Human HDAC1 = Human HDAC1 (Homo sapiens (Human), UniProt Q13547); assay: HDAC enzymatic assay, HDAC1; assay type: biochemical; conditions: 10-dose IC50 mode with a 3-fold serial dilution; read-out: HDAC subtypes IC50 HDAC1
Description: (§1) The IC50 values for aforementioned compounds against HDACs were determined. HDAC 1 to 11 can be assayed by using acetylated AMC-labeled peptide substrate.
(§2) Human HDAC1 GenBank Accession No. NM_004964): Full length with C-terminal GST tag, MW=79.9 kDa, Human HDAC2 (GenBank Accession No. Q92769): Full length with C-terminal His tag, MW=60 kDa. Human HDAC3/NcoR2 (GenBank Accession No. […] for HDAC3, GenBank Accession No. NM_006312 for NcoR2): Complex of human HDAC3, full length with C-terminal His tag, MW=49.7 kDa, and human NCOR2, N-terminal GST tag, MW=39 kDa. Human HDAC6 (GenBank Accession No. BC069243): Full length with N-terminal GST tag, MW=159 kDa. Human HDAC8 (GenBank Accession No. NM018486): Full length, MW=42 kDa, expressed in an E. coli expression system.
(§3) Human HDAC1, Human HDAC2, Human HDAC3/NcoR2, Human HDAC6, Human HDAC10, and Human HDAC11 were all expressed by baculovirus expression system in Sf9 cells.
(§4) 50 μM HDAC substrate. 1% DMSO final. Incubation for 2 hours at 30° C.

Human HDAC8 = Human HDAC8 (Homo sapiens (Human), UniProt Q9BY41); assay: HDAC enzymatic assay, HDAC8; assay type: biochemical; conditions: 10-dose IC50 mode with a 3-fold serial dilution; read-out: HDAC subtypes IC50 HDAC8
Description: as §1, §2, §4

Human HDAC6 = Human HDAC6 (Homo sapiens (Human), UniProt Q9UBN7); assay: HDAC enzymatic assay, HDAC6; assay type: biochemical; conditions: 10-dose IC50 mode with a 3-fold serial dilution; read-out: HDAC subtypes IC50 HDAC6
Description: as §1, §2, §3, §4

Human HDAC11 = Human HDAC11 (Homo sapiens (Human), UniProt Q96DB2); assay: HDAC enzymatic assay, HDAC11; assay type: biochemical; conditions: 10-dose IC50 mode with a 3-fold serial dilution; read-out: HDAC subtypes IC50 HDAC11
Description: as §1, §2, §3, §4

U87MG = conditions: human, 72 h
LNCap = conditions: human, 72 h
A549 = conditions: human, 72 h
PANC1 = conditions: human, 72 h
HepG2 = conditions: human, 72 h
in vitro [1] = conditions: human
in vitro [2] = conditions: monkey
HL60 = assay: Cell proliferation assay MTT, HL60; conditions: read-out: Cytotoxicity IC50 Leukemia HL60, 72 hr treated
MV4-11 = assay: Cell proliferation assay MTT, MV4-11; conditions: human, MV4-11 leukemia cells, 72 h
MOLM13 = assay: Cell proliferation assay MTT, MOLM13; conditions: human, MOLM13 leukemia cells, 72 h

Sequence of Human HDAC6 (Q9UBN7 whole entry): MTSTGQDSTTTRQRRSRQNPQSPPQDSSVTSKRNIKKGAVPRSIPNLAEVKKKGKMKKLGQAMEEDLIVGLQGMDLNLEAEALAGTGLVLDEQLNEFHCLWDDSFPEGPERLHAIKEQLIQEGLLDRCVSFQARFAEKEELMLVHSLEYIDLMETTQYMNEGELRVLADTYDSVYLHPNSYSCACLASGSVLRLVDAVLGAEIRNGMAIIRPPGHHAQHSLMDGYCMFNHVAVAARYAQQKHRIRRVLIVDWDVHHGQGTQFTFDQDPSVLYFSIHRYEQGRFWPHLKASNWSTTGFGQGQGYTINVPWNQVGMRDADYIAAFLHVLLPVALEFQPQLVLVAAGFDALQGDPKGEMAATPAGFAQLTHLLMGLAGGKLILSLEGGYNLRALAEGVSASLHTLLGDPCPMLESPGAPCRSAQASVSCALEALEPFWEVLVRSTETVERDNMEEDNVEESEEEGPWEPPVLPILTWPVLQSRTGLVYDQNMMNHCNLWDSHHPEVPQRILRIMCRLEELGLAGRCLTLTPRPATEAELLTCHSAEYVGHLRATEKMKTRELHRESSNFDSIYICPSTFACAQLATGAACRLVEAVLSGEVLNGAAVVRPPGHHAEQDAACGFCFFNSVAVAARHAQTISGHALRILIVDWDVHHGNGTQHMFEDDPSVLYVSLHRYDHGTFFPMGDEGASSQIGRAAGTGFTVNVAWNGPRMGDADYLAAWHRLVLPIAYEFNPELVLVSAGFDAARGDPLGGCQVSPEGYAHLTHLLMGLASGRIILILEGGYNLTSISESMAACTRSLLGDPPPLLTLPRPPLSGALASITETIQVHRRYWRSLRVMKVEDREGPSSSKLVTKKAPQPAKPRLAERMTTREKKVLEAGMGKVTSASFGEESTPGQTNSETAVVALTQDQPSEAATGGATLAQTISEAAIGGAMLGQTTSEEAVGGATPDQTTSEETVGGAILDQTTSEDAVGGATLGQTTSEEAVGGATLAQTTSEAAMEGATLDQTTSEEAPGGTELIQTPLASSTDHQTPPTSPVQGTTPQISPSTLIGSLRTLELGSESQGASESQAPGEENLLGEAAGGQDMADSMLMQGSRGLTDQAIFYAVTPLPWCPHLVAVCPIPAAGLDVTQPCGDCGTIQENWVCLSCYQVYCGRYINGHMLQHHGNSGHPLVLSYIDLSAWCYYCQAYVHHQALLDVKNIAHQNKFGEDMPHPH
Sequence of Human HDAC8 (Q9BY41 whole entry): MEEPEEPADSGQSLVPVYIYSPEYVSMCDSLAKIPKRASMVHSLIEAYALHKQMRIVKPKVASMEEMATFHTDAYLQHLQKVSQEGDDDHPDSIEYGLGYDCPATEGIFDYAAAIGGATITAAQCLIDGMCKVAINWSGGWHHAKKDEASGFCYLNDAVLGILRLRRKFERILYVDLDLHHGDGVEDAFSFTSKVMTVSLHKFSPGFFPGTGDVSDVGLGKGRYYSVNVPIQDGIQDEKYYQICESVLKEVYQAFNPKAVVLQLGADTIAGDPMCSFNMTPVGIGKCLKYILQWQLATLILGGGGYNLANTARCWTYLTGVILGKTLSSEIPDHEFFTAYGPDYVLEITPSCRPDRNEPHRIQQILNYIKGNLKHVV
Sequence of Human HDAC1 (Q13547 whole entry): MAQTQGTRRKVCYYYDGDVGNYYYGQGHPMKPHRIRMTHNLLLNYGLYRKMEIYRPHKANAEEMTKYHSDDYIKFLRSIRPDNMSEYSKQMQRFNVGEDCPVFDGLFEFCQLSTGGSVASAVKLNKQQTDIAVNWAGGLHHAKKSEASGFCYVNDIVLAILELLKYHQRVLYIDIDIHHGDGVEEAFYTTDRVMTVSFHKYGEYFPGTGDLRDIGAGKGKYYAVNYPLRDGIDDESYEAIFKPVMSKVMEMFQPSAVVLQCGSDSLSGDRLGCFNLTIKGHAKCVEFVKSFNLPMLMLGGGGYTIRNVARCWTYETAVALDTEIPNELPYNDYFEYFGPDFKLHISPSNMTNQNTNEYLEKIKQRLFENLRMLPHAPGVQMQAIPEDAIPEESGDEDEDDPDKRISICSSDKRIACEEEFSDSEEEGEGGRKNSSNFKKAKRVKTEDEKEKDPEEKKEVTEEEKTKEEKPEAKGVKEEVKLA
Sequence of Human HDAC11 (Q96DB2 whole entry): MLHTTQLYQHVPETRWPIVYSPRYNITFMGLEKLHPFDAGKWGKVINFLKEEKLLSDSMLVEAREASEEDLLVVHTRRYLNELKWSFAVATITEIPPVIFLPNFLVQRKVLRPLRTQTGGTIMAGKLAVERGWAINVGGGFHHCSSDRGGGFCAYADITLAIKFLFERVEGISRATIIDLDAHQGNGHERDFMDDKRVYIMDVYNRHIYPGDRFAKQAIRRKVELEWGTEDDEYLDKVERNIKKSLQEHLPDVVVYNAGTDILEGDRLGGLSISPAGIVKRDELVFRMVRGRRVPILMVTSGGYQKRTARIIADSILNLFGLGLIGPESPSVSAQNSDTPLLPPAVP

SMILES	IC50 (Human HDAC1)	IC50 (Human HDAC8)	IC50 (Human HDAC6)	IC50 (Human HDAC11)	IC50 (U87MG)	IC50 (LNCap)	IC50 (A549)	IC50 (PANC1)	IC50 (HepG2)	IC50 at 72 h (in vitro [1])	IC50 at 72 h (in vitro [2])	IC50 (HL60)	IC50 (MV4-11)	IC50 (MOLM13)
O=C(Cc1ccc(Cn2c(=O)n(CCc3ccccc3)c(=O)c3ccccc32)cc1)NO [Compound 16, 2-(4-((2,4-dioxo-3-phenethyl-3,4-dihydroquinazolin-1(2H)-yl)methyl)phenyl)-N-hydroxyacetamide]					6.28 ± 0.12 µM	6.05 ± 0.31 µM	7.07 ± 0.42 µM	8.73 ± 0.24 µM	6.99 ± 1.07 µM	163.2 ± 0.27 µM	160.3 ± 0.23 µM	2.77 ± 0.04 µM	3.04 ± 0.08 µM	3.29 ± 0.16 µM
O=C(NO)c1cc(Cn2c(=O)n(CCc3ccccc3)c(=O)c3ccccc32)cs1 [Compound 25, 4-((2,4-dioxo-3-phenethyl-3,4-dihydroquinazolin-1(2H)-yl)methyl)-N-hydroxythiophene-2-carboxamide]	> 30 µM	1.19 µM	1.19 µM	129 µM	5.23 ± 0.21 µM	5.77 ± 0.46 µM	6.25 ± 0.33 µM	8.13 ± 0.28 µM	5.31 ± 0.37 µM	105.1 ± 0.25 µM	106.3 ± 0.29 µM			
O=C(NO)C(F)(F)c1ccc(Cn2c(=O)n(CCc3ccccc3)c(=O)c3ccccc32)cc1 [Compound 20, 2-(4-((2,4-dioxo-3-phenethyl-3,4-dihydroquinazolin-1(2H)-yl)methyl)phenyl)-2,2-difluoro-N-hydroxyacetamide]					9.67 ± 0.66 µM	9.97 ± 0.08 µM	> 10 µM	> 10 µM	7.43 ± 0.27 µM	> 200 µM	> 200 µM			
O=C(NO)c1cccc(Cn2c(=O)n(CCc3ccccc3)c(=O)c3ccccc32)c1 [Compound 6, 3-((2,4-dioxo-3-phenethyl-3,4-dihydroquinazolin-1(2H)-yl)methyl)-N-hydroxybenzamide]	> 10 µM	0.653 µM	4.3 µM	> 10 µM	3.75 ± 0.13 µM	3.4 ± 0.21 µM	4.03 ± 0.12 µM	5.12 ± 0.32 µM	3.41 ± 0.34 µM	69.23 ± 0.27 µM	78.42 ± 0.22 µM			
O=C(NO)c1ccc(Cn2c(=O)n(Cc3ccccc3)c(=O)c3ccccc32)cc1 [Compound 11, 4-((3-benzyl-2,4-dioxo-3,4-dihydroquinazolin-1(2H)-yl)methyl)-N-hydroxybenzamide]	15.8 µM	0.486 µM	0.024 µM	37.5 µM	4.08 ± 0.11 µM	2.93 ± 0.62 µM	4.78 ± 0.11 µM	6.13 ± 0.17 µM	4.39 ± 0.07 µM	89.18 ± 0.62 µM	97.25 ± 0.31 µM			
N#Cc1ccc2c(=O)n(CCc3ccccc3)c(=O)n(Cc3cccc(C(=O)NO)c3)c2c1 [Compound 7, 3-((7-cyano-2,4-dioxo-3-phenethyl-3,4-dihydroquinazolin-1(2H)-yl)methyl)-N-hydroxybenzamide]	> 10 µM	0.235 µM	4.45 µM											
N#Cc1ccc2c(=O)n(CCc3ccccc3)c(=O)n(Cc3ccc(CC(=O)NO)cc3)c2c1 [Compound 23, 2-(4-((7-cyano-2,4-dioxo-3-phenethyl-3,4-dihydroquinazolin-1(2H)-yl)methyl)phenyl)-N-hydroxyacetamide]					4.12 ± 0.06 µM	4.05 ± 0.07 µM	4.21 ± 0.03 µM	5.12 ± 0.11 µM	4.24 ± 0.03 µM	92.11 ± 0.69 µM	95.27 ± 0.58 µM	1.25 ± 0.08 µM	1.19 ± 0.07 µM	2.32 ± 0.07 µM
O=C(NO)c1ccc(Cn2c(=O)n(CCc3ccccc3O)c(=O)c3ccccc32)cc1 [Compound 18, N-hydroxy-4-((3-(2-hydroxyphenethyl)-2,4-dioxo-3,4-dihydroquinazolin-1(2H)-yl)methyl)benzamide]	8.83 µM	0.4 µM	0.006 µM	16.7 µM										

Further lines, with some results ahead:

IC50 (Human HDAC1)	IC50 (Human HDAC8)	IC50 (Human HDAC6)	IC50 (Human HDAC11)	IC50 (U87MG)	IC50 (LNCap)	IC50 (A549)	IC50 (PANC1)	IC50 (HepG2)	IC50 at 72 h (in vitro [1])	IC50 at 72 h (in vitro [2])	SMILES	IC50 (HL60)	IC50 (MV4-11)	IC50 (MOLM13)
14.5 µM	3.06 µM	0.168 µM	10.5 µM								O=C(NO)c1ccc(Cn2c(=O)n(CCc3ccccc3)c(=O)c3ccc(C4CC4)cc32)cc1 [Compound 27, 4-((7-cyclopropyl-2,4-dioxo-3-phenethyl-3,4-dihydroquinazolin-1(2H)-yl)methyl)-N-hydroxybenzamide]			
12 µM	0.731 µM	0.051 µM		> 10 µM	> 10 µM	> 10 µM	> 10 µM	> 10 µM	> 200 µM	> 10 µM	COc1ccc2c(=O)n(CCc3ccccc3)c(=O)n(Cc3ccc(C(=O)NO)cc3)c2c1 [Compound 2, N-hydroxy-4-((7-methoxy-2,4-dioxo-3-phenethyl-3,4-dihydroquinazol-1(2H)-yl)methyl)benzamide]			
11.2 µM	1.07 µM	0.028 µM	25.1 µM	9.12 ± 0.23 µM	7.53 ± 0.23 µM	> 10 µM	> 10 µM	> 10 µM	159.1 ± 0.44 µM	166.4 ± 0.39 µM	O=C(NO)c1ccc(Cn2c(=O)n(CCc3ccccc3)c(=O)c3cccnc32)cc1 [Compound 12, 4-((2,4-dioxo-3-phenethyl-3,4-dihydropyrido[2,3-d]pyrimidin-1(2H)-yl)methyl)-N-hydroxybenzamide]			
9.41 µM	0.095 µM	0.008 µM	15.4 µM								O=C(NO)c1ccc(Cn2c(=O)n(CCc3ccccc3)c(=O)c3ccc(F)cc32)cc1 [Compound 1, 4-((7-fluoro-2,4-dioxo-3-phenethyl-3,4-dihydroquinazolin-1(2H)-yl)methyl)-N-hydroxybenzamide]			
9.79 µM	0.979 µM	0.014 µM	22.8 µM								O=C(NO)c1ccc(Cn2c(=O)n(CCc3ccc(N4CCOCC4)cc3)c(=O)c3ccccc32)cc1 [Compound 30, N-hydroxy-4-((3-(4-morpholinophenethyl)-2,4-dioxo-3,4-dihydroquinazolin-1(2H)-yl)methyl)benzamide]			
10.7 µM	0.287 µM	0.011 µM	10 µM	4.18 ± 0.22 µM	3.83 ± 0.17 µM	4.69 ± 0.17 µM	> 10 µM	4.11 ± 0.27 µM	60.41 ± 0.22 µM	76.31 ± 0.32 µM	O=C(NO)c1ccc(Cn2c(=O)n(CCc3cccs3)c(=O)c3ccccc32)cc1 [Compound 24, 4-((2,4-dioxo-3-(2-(thiophen-2-yl)ethyl)-3,4-dihydroquinazolin-1(2H)-yl)methyl)-N-hydroxybenzamide]			
4.38 µM	1.42 µM	0.025 µM	3.8 µM								CNc1ccc(CCn2c(=O)c3ccccc3n(Cc3ccc(C(=O)NO)cc3)c2=O)cc1 [Compound 29, N-hydroxy-4-((3-(4-(methylamino)phenethyl)-2,4-dioxo-3,4-dihydroquinazolin-1(2H)-yl)methyl)benzamide]			
6.66 µM	0.169 µM	0.015 µM	5.69 µM	2.93 ± 0.13 µM	0.98 ± 0.06 µM	3.22 ± 0.31 µM	4.72 ± 0.37 µM	3.55 ± 0.14 µM	63.11 ± 0.17 µM	81.51 ± 0.18 µM	O=C(NO)c1ccc(Cn2c(=O)n(CCc3ccccc3)c(=O)c3ccsc32)cc1 [Compound 21, 4-((2,4-dioxo-3-phenethyl-3,4-dihydrothieno[2,3-d]pyrimidin-1(2H)-yl)methyl)-N-hydroxybenzamide]			
2.72 µM	0.523 µM	0.004 µM		7.63 ± 0.12 µM	4.72 ± 0.16 µM	8.15 ± 0.17 µM	9.04 ± 0.21 µM	6.65 ± 0.22 µM	85.33 ± 0.34 µM	93.24 ± 0.37 µM	Cn1c(=O)c2ccc(Cl)cc2n(Cc2ccc(C(=O)NO)cc2)c1=O [Compound 10, 4-((7-chloro-3-methyl-2,4-dioxo-3,4-dihydroquinazolin-1(2H)-yl)methyl)-N-hydroxybenzamide]			
